In US20240092772A1, “CRYSTALLINE FORM OF A PIPERAZINYL-THIAZOLE DERIVATIVE” (Idorsia Pharmaceuticals Ltd, priority 2021, published 2024):

Columns and labels:
[1] = Gravimetric vapor sorption (GVS), hygroscopicity determination; type: physicochemical; conditions: 25° C.; variation in mass between 40% and 80% RH in first sorption scan; classification in analogy to Ph. Eur. 10.0, section 5.11
Description: Gravimetric Vapor Sorption (GVS) Moisture sorption isotherm was collected on a dynamic vapor sorption analyzer IGASORP HAS-036-080 from Hiden Isochema operated with Isochema HIsorp 2019 software version 4.02.0070. Typically, about 30 mg of a sample is placed in the sample holder and is submitted to a stepwise equilibration at defined relative humidity (RH) setpoints at 25° C. The sample mass is recorded at these setpoints and are used to build the moisture sorption isotherm. The relative humidity setpoints used were 40% to 0% RH followed by 0% to 95% RH in 5% RH intervals. Data shown consist of the moisture sorption isotherm in the range 5% to 90% of the sample submitted to the increasing relative humidity. The variation in mass between 40% relative humidity and 80% relative humidity in the first sorption scan is evaluated for the hygroscopicity determination. The classification is done in analogy to the European Pharmacopeia (Ph. Eur.) 10.0, section 5.11.

[2] = Solid-state stability of crystalline form 3 on isolation/drying (XRPD); type: physicochemical; conditions: isolation by filter centrifugation or drying under reduced pressure; transforms to crystalline form 1
Description: In another experiment 0.04 mL of MeCN is added to 20 mg of COMPOUND (e.g. as obtained from Example 1) in a standard glass HPLC vial, and the suspension in the closed vial is submitted to a temperature variation cycle while being stirred with a magnetic stirring bar. Temperature cycling (repetition of heating 20° C. to 40° C. in 1 hour and cooling 40° C. to 20° C. in 4 hours) and stirring for 25 hours is done in a Polar Bear device (Cambridge reactor design, UK) The obtained solid, when analyzed without drying, is COMPOUND in crystalline form 3.
Form 3 is observed by XRPD when measured still in presence of sufficient MeCN. Isolation by filter centrifugation or isolation and drying under reduced pressure leads to the transformation of crystalline form 3 to crystalline form 1, pointing to the metastable nature of form 3 in absence of sufficient MeCN.

GVS (hygroscopicity) [1]	Stability of the crystalline form in absence of sufficient MeCN [2]	Structure (SMILES)
Not hygroscopic	–	Cc1ncn(CC(=O)N2CCN(c3sc(C(F)(F)F)nc3-c3cnc(C(F)(F)F)nc3)C[C@H]2CCO)n1 [COMPOUND in crystalline form 1, 1-{(R)-2-(2-Hydroxy-ethyl)-4-[2-trifluoromethyl-4-(2-trifluoromethyl-pyrimidin-5-yl)-thiazol-5-yl]-piperazin-1-yl}-2-(3-methyl-[1,2,4]triazol-1-yl)-ethanone]
–	metastable	Cc1ncn(CC(=O)N2CCN(c3sc(C(F)(F)F)nc3-c3cnc(C(F)(F)F)nc3)C[C@H]2CCO)n1 [crystalline form 3, 1-{(R)-2-(2-Hydroxy-ethyl)-4-[2-trifluoromethyl-4-(2-trifluoromethyl-pyrimidin-5-yl)-thiazol-5-yl]-piperazin-1-yl}-2-(3-methyl-[1,2,4]triazol-1-yl)-ethanone]
